# Experimental data as given in the supplement of paper PMC4862054.
# Assays:
# Details in all cases: incubation time: 72 h
# [1] = tested on: BT-474; test: normalised response (% of control), CellTox Green; higher = less cell death (100 = DMSO, 0 = benzethonium chloride kill control)
# Outline: (§1)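 The table gives the normalised signal for a single concentration in each entry. Breast cancer cell lines were seeded (20 µl suspension) into 384-well plates holding compound at 5 concentrations in 10-fold steps over a compound-specific 10,000-fold range and incubated 72 h, then read for CellTox Green fluorescence (485/520 nm) and CellTiter-Glo luminescence. Normalisation on each plate used 0.1 % DMSO (100) and a positive kill control (0).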
# [2] = tested on: BT-549; test: as above
# Outline: as §1
# [3] = tested on: CAL-120; test: as above
# Outline: as §1
# [4] = tested on: CAL-148; test: as above
# Outline: as §1
# [5] = tested on: CAL-51; test: as above
# Outline: as §1
# [6] = tested on: CAL-85-1; test: as above
# Outline: as §1
# [7] = tested on: DU-4475; test: as above
# Outline: as §1
# [8] = tested on: HCC1143; test: as above
# Outline: as §1
# [9] = tested on: HCC1599; test: as above
# Outline: as §1
# [10] = tested on: HCC1937; test: as above
# Outline: as §1
# [11] = tested on: Hs578T; test: as above
# Outline: as §1
# [12] = tested on: MCF-10A; test: as above
# Outline: as §1
# [13] = tested on: MDA-MB-231; test: as above
# Outline: as §1
# [14] = tested on: MDA-MB-436; test: as above
# Outline: as §1
# [15] = tested on: MDA-MB-453; test: as above
# Outline: as §1
# [16] = tested on: MFM-223; test: as above
# Outline: as §1
# [17] = tested on: BT-474; test: normalised response (% of control), CellTiter-Glo; higher = more viable cells (100 = DMSO, 0 = benzethonium chloride kill control)
# Experimental: (§2)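 DSRT, 72 h incubation, CellTox Green / CellTiter-Glo readout. Signal is normalised to DMSO and benzethonium chloride controls. Value is the normalised response at the highest dose.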
# [18] = tested on: BT-549; test: as above
# Experimental: as §2
# [19] = tested on: CAL-120; test: as above
# Experimental: as §2
# [20] = tested on: CAL-148; test: as above
# Experimental: as §2
# [21] = tested on: CAL-51; test: as above
# Experimental: as §2
# [22] = tested on: CAL-85-1; test: as above
# Experimental: as §2
# [23] = tested on: DU-4475; test: as above
# Experimental: as §2
# [24] = tested on: HCC1143; test: as above
# Experimental: as §2
# [25] = tested on: HCC1599; test: as above
# Experimental: as §2
# [26] = tested on: HCC1937; test: as above
# Experimental: as §2
# [27] = tested on: HDQ-P1; test: as above
# Experimental: as §2
# [28] = tested on: Hs578T; test: as above
# Experimental: as §2
# [29] = tested on: MCF-10A; test: as above
# Experimental: as §2
# [30] = tested on: MDA-MB-231; test: as above
# Experimental: as §2
# [31] = tested on: MDA-MB-436; test: as above
# Experimental: as §2
# [32] = tested on: MDA-MB-453; test: as above
# Experimental: as §2
# [33] = tested on: MDA-MB-468; test: as above
# Experimental: as §2
# [34] = tested on: MFM-223; test: as above
# Experimental: as §2
# [35] = tested on: SK-BR-3; test: as above
# Experimental: as §2
# [36] = tested on: HDQ-P1; test: normalised response (% of control), CellTox Green; higher = less cell death (100 = DMSO, 0 = benzethonium chloride kill control)
# Outline: as §1
# [37] = tested on: MDA-MB-468; test: as above
# Outline: as §1
# [38] = tested on: BT-474; test: normalised response (% of control), CellTiter-Glo; higher = more viable cells (100 = DMSO, 0 = benzethonium chloride kill control); remark: listed apart in the source
# Outline: as §1
# [39] = tested on: BT-549; test: as above; remark: listed apart in the source
# Outline: as §1
# [40] = tested on: CAL-120; test: as above; remark: listed apart in the source
# Outline: as §1
# [41] = tested on: CAL-148; test: as above; remark: listed apart in the source
# Outline: as §1
# [42] = tested on: CAL-51; test: as above; remark: listed apart in the source
# Outline: as §1
# [43] = tested on: CAL-85-1; test: as above; remark: listed apart in the source
# Outline: as §1
# [44] = tested on: DU-4475; test: as above; remark: listed apart in the source
# Outline: as §1
# [45] = tested on: HCC1143; test: as above; remark: listed apart in the source
# Outline: as §1
# [46] = tested on: HCC1599; test: as above; remark: listed apart in the source
# Outline: as §1
# [47] = tested on: HCC1937; test: as above; remark: listed apart in the source
# Outline: as §1
# [48] = tested on: HDQ-P1; test: as above; remark: listed apart in the source
# Outline: as §1
# [49] = tested on: Hs578T; test: as above; remark: listed apart in the source
# Outline: as §1
# [50] = tested on: MCF-10A; test: as above; remark: listed apart in the source
# Outline: as §1
# [51] = tested on: MDA-MB-231; test: as above; remark: listed apart in the source
# Outline: as §1
# [52] = tested on: MDA-MB-436; test: as above; remark: listed apart in the source
# Outline: as §1
# [53] = tested on: MDA-MB-453; test: as above; remark: listed apart in the source
# Outline: as §1
# [54] = tested on: MDA-MB-468; test: as above; remark: listed apart in the source
# Outline: as §1
# [55] = tested on: MFM-223; test: as above; remark: listed apart in the source
# Outline: as §1
# [56] = tested on: SK-BR-3; test: as above; remark: listed apart in the source
# Outline: as §1
Structure (SMILES),normalised response [1] [%],normalised response [2] [%],normalised response [3] [%],normalised response [4] [%],normalised response [5] [%],normalised response [6] [%],normalised response [7] [%],normalised response [8] [%],normalised response [9] [%],normalised response [10] [%],normalised response [11] [%],normalised response [12] [%],normalised response [13] [%],normalised response [14] [%],normalised response [15] [%],normalised response [16] [%],normalised response [36] [%],normalised response [37] [%],normalised response [38] [%],normalised response [39] [%],other results
C[C@]12CC[C@@H]3c4ccc(OC(=O)N(CCCl)CCCl)cc4CC[C@H]3[C@@H]1CC[C@@H]2O [Estramustine] (10000 nM),99,58,98.3,101,74,130,96.4,110,95,81.2,79.7,106,102,99.6,96.2,96.7,–,–,–,–,normalised response [17]: 95%; normalised response [18]: 106%; normalised response [19]: 103%; normalised response [20]: 78.5%; normalised response [21]: 93.3%; normalised response [22]: 94.2%; normalised response [23]: 85.5%; normalised response [24]: 97.5%; normalised response [25]: 95.5%; normalised response [26]: 91.7%; normalised response [27]: 105%; normalised response [28]: 92.7%; normalised response [29]: 88%; normalised response [30]: 96.6%; normalised response [31]: 91.7%; normalised response [32]: 92.4%; normalised response [33]: 87.7%; normalised response [34]: 85.9%; normalised response [35]: 87.4%
C[C@]1(O)C[C@@H](c2nc(-c3ccc4ccc(-c5ccccc5)nc4c3)c3c(N)nccn32)C1 [Linsitinib] (10000 nM),95.6,111,97.5,98.4,95.4,89.2,97.4,119,101,105,68.2,101,65,–,99.2,89.9,107,96.4,–,–,normalised response [17]: 68.8%; normalised response [18]: 76%; normalised response [19]: 73.6%; normalised response [20]: 88.2%; normalised response [21]: 126%; normalised response [22]: 69.6%; normalised response [23]: 85.5%; normalised response [24]: 68.5%; normalised response [25]: 50.9%; normalised response [26]: 88.7%; normalised response [27]: 53.5%; normalised response [28]: 91.9%; normalised response [29]: 26.1%; normalised response [30]: 77.2%; normalised response [31]: 85.5%; normalised response [32]: 80%; normalised response [33]: 59.2%; normalised response [34]: 83.1%; normalised response [35]: 49.9%
Cc1ccc([N+](=O)[O-])cc1S(=O)(=O)N(C)/N=C/c1cnc2ccc(Br)cn12 [PIK-75] (100 nM),78.3,65.2,85.3,36.5,7.25,22,71.8,89.3,79.3,78.6,17.7,17.8,-1.87,50.7,101,84,77.6,84.6,18.7,8.06,normalised response [40]: 38.3%; normalised response [41]: 44.8%; normalised response [42]: 12.6%; normalised response [43]: 14.4%; normalised response [44]: 8.8%; normalised response [45]: 38.8%; normalised response [46]: 47.9%; normalised response [47]: 36.9%; normalised response [48]: 22.1%; normalised response [49]: 14.7%; normalised response [50]: 10.5%; normalised response [51]: 8.41%; normalised response [52]: 11.2%; normalised response [53]: 56%; normalised response [54]: 14.4%; normalised response [55]: 31.3%; normalised response [56]: 19.3%
CC(C)(C)c1cnc(CSc2cnc(NC(=O)C3CCNCC3)s2)o1 [SNS-032] (100 nM),86.4,88.6,90.5,-22.6,39.7,35.7,95.2,85,88.5,53.3,60.3,84.7,4.71,59.7,94.9,91.5,57.6,94.5,68.2,20.3,normalised response [40]: 70.9%; normalised response [41]: 42.8%; normalised response [42]: 31.9%; normalised response [43]: 28.2%; normalised response [44]: 86.9%; normalised response [45]: 36.6%; normalised response [46]: 90.2%; normalised response [47]: 60.8%; normalised response [48]: 44.2%; normalised response [49]: 55.6%; normalised response [50]: 79.4%; normalised response [51]: 29.7%; normalised response [52]: 27.9%; normalised response [53]: 46.2%; normalised response [54]: 12.6%; normalised response [55]: 76.9%; normalised response [56]: 33.1%
Cn1cnc2c(F)c(Nc3ccc(Br)cc3Cl)c(C(=O)NOCCO)cc21 [Selumetinib] (100 nM),96.5,104,95.8,90.4,98.7,94.9,92.2,86.3,89.2,100,102,94.8,77.1,77.2,101,94.9,97.9,75.3,84.2,104,normalised response [40]: 90%; normalised response [41]: 94%; normalised response [42]: 94.1%; normalised response [43]: 100%; normalised response [44]: 81%; normalised response [45]: 92%; normalised response [46]: 113%; normalised response [47]: 85%; normalised response [48]: 70.6%; normalised response [49]: 89.4%; normalised response [50]: 45.7%; normalised response [51]: 84.7%; normalised response [52]: 96.2%; normalised response [53]: 103%; normalised response [54]: 89.6%; normalised response [55]: 94.9%; normalised response [56]: 91%
